Here are results for two compounds from publication PMC9666555, “Genuine selective caspase-2 inhibition with new irreversible small peptidomimetics” (Cell Death & Disease, 2022).

Non-standard residues stand in square brackets, D forms with d. Residues, ends and D or L forms follow the SMILES beside them. ξ: configuration not given here. *: point of attachment. ξTHIQ1CO(6-Me) = Cc1ccc2c(c1)CCNC2C(=O)O; X1 = O=C(O)CC(N*)C(=O)COc1c(F)cccc1F; Quinaldoyl = O=C(c1ccc2ccccc2n1)*

Data set [1] has as its system HeLa cells. The experiment in a line: Vincristine-induced HeLa cell death (propidium iodide, flow cytometry). The data set is classed as cell-based, human. As to conditions: indicated doses, 1 h pretreatment, 20 nM vincristine 44 h. As to the method: HeLa cells (obtained from ATCC) were cultured in Dulbecco’s Modified Eagle Medium (DMEM, High Glucose, GlutaMAX™, Pyruvate) supplemented with antibiotics and 10% fetal calf serum (FCS) (Gibco, Life Technologies) and maintained in T75 Flasks at 1 × 10^6 cells per flask. Twenty-four hours before treatments, HeLa cells were transferred to 6-well plates (8 × 10^4 cells/well). The lymphoblastoid cell line Molt4cl8 was a gift from Dr. Bernard Krust (Inserm, University Paris 5) and was cultured in RPMI 1640 Glutamax medium supplemented with Hepes, antibiotics, and 10% FCS. HEK293 cells were obtained from ATCC (CRL-1573) and cultured in DMEM with Glutamax and 25 mM glucose (Life Technologies) supplemented with 10% FCS and antibiotics. For cell death induction, the following agents were added to cell cultures: Vincristine (Sigma) and Panobistat (LBH589; Selleck). Cell death was analyzed using fluorescence microscopy (Axio-observer Z1, Zeiss; equipped with CCD camera CoolsnapHQ2, Ropert Scientific) and cytofluorometry (MACSQuant® VYB; Miltenyi Biotec, Bergisch Gladbach, Germany) after labeling with propidium iodide (1 µg/mL; 10 min; 37 °C; Life Technologies) and Hoechst 33342 (1 µg/mL; 5 min; RT; Sigma).
Fig. 2 q33 and h33 are protective against the cytocidal effect of Vincristine. a Vincristine induces HeLa cell death. Cells were incubated for 44 h at 37 °C with 20 nM Vincristine (VCR), then incubated with propidium iodide at 2 μg/mL for 10 min and analyzed by flow cytometry to quantify plasma membrane permeabilization. Histograms show fluorescence intensity detected by flow cytometry (one representative experiment) in the presence (VCR) or Absence (Co.) of Vincristine. % of propidium iodide-positive cells are indicated for both conditions. b Dose–response of Vincristine-induced cell death. HeLa cells were incubated and treated as in (a) with the indicated doses of Vincristine (VCR) and analyzed by flow cytometry. […] Representative fluorescence microscopy micrographs of cells treated for 44 h with 20 nM vincristine (VCR) or not (Co.) and stained with Hoechst 33342. Vincristine induces progressive nuclear changes with first condensed nuclei (arrows) and then apoptotic bodies (dashed arrow). d Broad-spectrum irreversible caspase inhibitors prevent vincristine-induced cell death. HeLa cells were pretreated for 1 hr with the indicated broad-spectrum irreversible caspases inhibitors (z-VAD(OMe)-fmk at 30 μM, Q-VD-OPh 30 μM, Emricasan 10 μM, or the negative control Q-VE-OPh 30 μM), then treated with vincristine as in panel (a), and analyzed by flow cytometry. Histograms show the mean ± SD of 3 independent experiments (***p value < 0.001). e Effect of the reversible Caspase-2 inhibitors q33 and h33 against vincristine-induced cell death. HeLa cells were pretreated for 1 h with the indicated doses of q33 or h33, then treated with vincristine as in panel a, and analyzed by flow cytometry. Histograms show the mean ± SD of three independent experiments (*p value < 0.1). TEXT PRINTED IN THE PICTURE: (a) VCR: 39,5 % DOUBTS OF THE COPYIST ABOUT THIS PICTURE: Panel a: the picture prints no measure beside "39,5 %" and "4.1%". I assigned 39,5 % to VCR only because it stands by the grey VCR peak. / Panel a: "4.1%" seems to belong to the untreated control (Co.). That is not a substance, so it is left out.
Fig. 5 LJ2 inhibits cell death induced by microtubule destabilization and hydroxamic acid-based deacetylase (HDAC) inhibition. a Effect of the irreversible Caspase-2 inhibitors LJ2 against vincristine-induced cell death. HeLa cells were pretreated for 1 h with the indicated doses of LJ2, Q-VD-OPh, or Q-LETD-OPh, then treated with vincristine (VCR) as in Fig. 2, then incubated with propidium iodide at 2 μg/mL for 10 min and analyzed by flow cytometry. Histogram data are mean ± SD (n = 3, *p value < 0.01). b Effect of Caspases-inhibitors against Panobistat (LBH589)-induced cell death. […]

In data set [2] the test system is cell lines or primary neurons in culture. Description: Toxicity of inhibitor added to cultured cells. As to conditions: at least up to 100 µM; not shown. The data set is classed as cell-based.
The subject of data set [3] is Swiss mice hippocampal neurons. The experiment in a line: Aβ oligomer-induced dendritic spine loss in hippocampal primary cultures. Type of data set: cell-based, mouse. The conditions noted are these: 100 nM Aβ1-42 oligomers 6 h.
Description: For the monoculture model (MBBT4 devices), 20 × 10^3 hippocampal neurons were seeded in each chamber. For the compartmentalized coculture model (neuronal diode in MBBT5 devices), 40 × 10^3 cortical cells and 15 × 10^3 hippocampal cells were seeded in each input chamber and output chamber, respectively. The culture medium was renewed every 5 days. Microfluidic chips were placed in Petri dishes containing 0.1% EDTA (Sigma) and incubated at 37 °C in a 5% CO2 atmosphere. In the neuronal diodes, cortical axons entered the microchannels and reached the hippocampi chamber in around 4–5 days. In both the monoculture and coculture systems, cells were cultured for 3 weeks to allow high dendrites and synapse density and intense electrical firing.
Cells were treated with caspase inhibitors and/or Aβ1–42 at 20 days in vitro. For the hippocampal monocultures, the culture medium was removed and replaced by fresh medium optionally containing 10 nM Aβ1–42 oligomers or monomers, with or without caspase inhibitors. After 6 h, cells were fixed, permeabilized, and subjected to immunolabelling. For cortico-hippocampal compartmentalized cocultures, the medium of the input chamber (cortical) was replaced by fresh medium optionally containing 100 nM Aβ1–42 oligomers or monomers, whereas the medium of the output (hippocampal) chamber was replaced by fresh medium optionally containing, or not, caspases inhibitors. […]
Immunostaining was performed directly in microfluidic chambers as described [38]. […] Images were analyzed using ImageJ software (NIH, Bethesda, MD, USA).
Synaptic disconnection was assessed as described [39] with slight modifications. Briefly, in hippocampal monocultures, synaptic disconnection was assessed through fluorescence microscopy by counting phalloidin clusters affixed to MAP2 and Bassoon. In cortico-hippocampal compartmentalized cocultures, synaptic disconnection was assessed by counting α-Synuclein presynaptic clusters affixed to MAP2-positive hippocampal dendrites. […] The images were similarly processed with ImageJ software before being used for quantification: the brightness/contrast of all control images were optimized manually to eliminate the background and to maximize the signal. The means of the minimum and maximum intensities were then calculated in the control condition and these settings were applied to all images. The brightness/contrast of all images was optimized manually to eliminate the background and maximize the intensity of the signal. α-synuclein/ MAP2 and Phalloidin/MAP2/Bassoon merges were then used for quantification. The number of spines was determined by counting individual clusters along ten dendritic regions (100 µm length each) in three independent experiments for every epitope. Only synapses detected on or near the neurites were included for analysis.
The target in data set [4] is human recombinant Caspase-6 (Homo sapiens, UniProt P55212). Description: Additional enzyme kinetics, Caspase-6. As to conditions: concentrations up to 10 µM.
Description: The human active recombinant Caspase-3 (#707-C3) was purchased from R&D Systems (Minneapolis, USA). […] Stock solutions were stored at −80 °C. […] Caspase inhibitors were solubilized in DMSO at 10 mM and stored at −80 °C.
Initial velocity (V0) was determined from the linear portion of the progress curve. The composition of the activity buffer was: 20 mM HEPES, pH 7.4; 0.1% CHAPS, 5 mM DTT, 2 mM EDTA; 800 mM sodium succinate for Caspase-2 (0.2 nM) with 25 µM of Ac-VDVAD-7-amino-3-methylcoumarin (AMC) and 20 mM HEPES, pH 7.4; 0.1% CHAPS, 5 mM DTT, 2 mM EDTA; supplemented with 1 mg/mL of stabilizing agent bovine serum albumin (BSA) for Caspase-3 (0.1 nM) with 10 μM of Ac-DEVD-AMC. Compounds (0.001–100 µM) were tested in duplicate for each inhibitor concentration to detect their inhibitory potential. Enzymes and compounds were incubated for 30 min before initiating enzymatic reaction by adding substrate. Initial rates determined in control experiments (V0) were considered as 100% of the caspase activity; initial rates that were below 100% in the presence of tested compound (Vi) were considered as inhibition. The inhibitory activity of compounds was expressed as IC50 (Inhibitor concentration giving 50% inhibition). The values of IC50 were calculated by fitting the experimental data using Mars data Analysis 2.0 and KaleidaGraph software.1 %Inhibition=1001−Vi/V0=100I0/IC50+I0
The target of data set [5] is Cathepsin-L (Homo sapiens, UniProt P07711). The experiment in a line: Non-caspase enzyme assay, Cathepsin-L. Type of data set: biochemical. As to conditions: concentrations up to 10 µM. Here is the method:
Stock solutions were stored at −80 °C. […]
Non-caspase enzyme assays
The human pro- kallikrein-1 (pro-hK1) was activated in a buffer containing: Tris-HCl 50 mM, CaCl2 10 mM, NaCl 150 mM, Brij-35 0,05% pH 7,5. Human pro-kallikrein-6 and -8 (pro-hK6 and 8 were activated using Lysyl-endopeptidase (Wako- BioProducts®) at a 1/500 weight ratio, in a buffer containing 50 mM Tris and 0,05% Brij-35 (pH 8). Kinetics using non-caspase enzymes for selectivity studies were done according to the following conditions.
Enzymes Substrates Buffers
Cathepsine B (0.2 nM) z-RR-AMC 20 µM Acétate de sodium 0,1 M; EDTA 1mM ; […]
Cathepsine L (1.2 nM) RLR-AMC 25 µM Acétate de sodium 0,1 M; EDTA 1mM ; […]
Cathepsine D (0.1 nM) Mca-Gly-Ly s-Pro-Ile-Leu-Phe-Phe- Citrate de Sodium 0,1 M; EDTA 2 mM ; Arg-Leu-Lys(Dnp)-D-Arg-NH2 10 µM Brij-35 0,01%; pH 4 hK1 (4 nM) Boc-VPR-AMC 100µM Tris 50mM; Citrate 1M; Brij-35 0.05%; pH7 hK6 (2 nM ) Boc-QAR -AMC 100 µM Tris 50mM; Citrate 1M; Brij-35 0.05%; pH7 hK8 (1 nM) Boc-VPR-AMC 100µM Tris 50mM; Citrate 1M; Brij-35 0.05%; pH7
Thrombine (10 mU/mL) Boc-VPR-AMC 100µM Tris 50mM; Citrate 1M; Brij-35 0.05%; pH7 Plasmine (4 nM ) Boc-QAR -AMC 100µM Tris 50mM; Citrate 1M; Brij-35 0.05%; pH7 Trypsine (0.1 nM) Boc-QAR -AMC 100µM Tris 50mM; Citrate 1M; Brij-35 0.05%; pH7

Data set [6] concerns Casp2-S1P-SREBP2 activation pathway in HEK 293 cells. The experiment in a line: Casp2-dependent S1P cleavage and SREBP2 activation in transfected HEK 293 cells (WB). As to conditions: 10 µM, 16 h.
Description: To test SREBP processing, HEK 293 (ATCC® CRL-1573) cells were plated at a density of 0.5 × 10^5 per well (6-well plates). The next day, 1 μg of each cDNAs were transfected using lipofectamine 3000 (Thermo Fisher Scientific, MA) according to the manufacturer’s instruction. cDNAs used were empty vector (EV), Casp2-HA, PIDD-Flag, RAIDD-His, Myc-S1P, and V5-SREBP2. After 4 h, cells were incubated in DMEM/F12 medium supplemented with indicated Casp2 inhibitors (10 μM) for 16 h. Whole-cell lysates were prepared in lysate buffer (150 mM Tris-HCl, pH 7.4, 10% sodium-deoxycholate, 100 mM NaCl, 100 mM EDTA, 100 mM PMSF, 200 mM NaF, 100 mM Na3VO4, and a mixture of protease inhibitors). […] Equal quantities of proteins were subjected to immunoblot (WB) analysis with anti-Flag (#F7425 Sigma-Aldrich), anti-HA (#1867431, Roche), anti-Casp2 (#ALX-804-356, 11B4, Enzo Life Sciences), anti-V5 monoclonal antibody (#13202, Cell Signaling Technology), anti-Casp3 (#9661, #9662, #9664, Cell Signaling Technologies), and anti-HSP90 (#sc-101494, Santa Cruz Technologies).
HEK 293 cells were transfected with indicated plasmids in order to overexpress SREBP2, S1P, RAIDD, PIDD1, and Casp-2. […] HEK 293 cells were transfected with the indicated plasmids. […] Then, whole cell extracts (WCL) were prepared and subjected to WB analysis to detect Casp2 (through HA tag), RAIDD (through 6HIS tag), and PIDD1, PIDD1-C, PIDD1-CC (through Flag tag).

Sequence of human recombinant Caspase-6 (P55212 24-179 limits assumed): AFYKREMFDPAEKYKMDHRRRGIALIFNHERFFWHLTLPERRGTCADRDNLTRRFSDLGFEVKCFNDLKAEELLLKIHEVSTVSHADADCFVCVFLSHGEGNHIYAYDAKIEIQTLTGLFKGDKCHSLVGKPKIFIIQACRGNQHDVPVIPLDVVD
Sequence of human recombinant Caspase-6 (P55212 194-293 limits assumed): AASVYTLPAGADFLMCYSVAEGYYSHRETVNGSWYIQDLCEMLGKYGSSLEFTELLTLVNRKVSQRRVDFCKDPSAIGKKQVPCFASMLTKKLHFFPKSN
Sequence of Cathepsin-L (P07711 114-333): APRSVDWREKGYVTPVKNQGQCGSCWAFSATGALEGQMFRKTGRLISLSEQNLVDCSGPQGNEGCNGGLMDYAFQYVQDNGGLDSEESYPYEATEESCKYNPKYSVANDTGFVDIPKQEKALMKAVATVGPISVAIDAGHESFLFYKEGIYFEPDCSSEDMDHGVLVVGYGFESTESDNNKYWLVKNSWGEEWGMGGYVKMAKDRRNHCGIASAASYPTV

Regarding `Cc1ccc2c(c1)CCN(C(=O)[C@@H](NC(=O)[C@H](CC(=O)O)NC(=O)[C@@H](NC(=O)c1ccc3ccccc3n1)C(C)C)C(C)C)C2C(=O)NC(CC(=O)O)C(=O)COc1c(F)cccc1F` (stereo partly drawn) [LJ2, Quinolin-2-carbonyl-VDV-(methyl-isoquinolyl)-D-CH2-O(2,6F2)Ph] (Quinaldoyl-VDV[ξTHIQ1CO(6-Me)]-X1), in data set [1], the “effect against vincristine-induced cell death” value was “significantly prevented Vincristin-induced cell death in a dose-dependent manner”. Moreover, in data set [2], the toxicity entry is “devoid of any toxicity”.
For the compound `CC(C)[C@H](NC(=O)c1ccc2ccccc2n1)C(=O)N[C@@H](CC(=O)O)C(=O)N[C@H](C(=O)N1CC[C@H](CC(C)(C)C)[C@@H]1C(=O)NC(CC(=O)O)C(=O)COc1c(F)cccc1F)C(C)C` (stereo partly shown) [LJ3a], the “prevention of dendritic spine loss induced by oligomeric Aβ” value in data set [3] (pretreatment at 0.1 µM) is 59.63%. In data set [3] (pretreatment at 1 µM), the “prevention of dendritic spine loss induced by oligomeric Aβ” value was determined as 89.29%. Moreover, in data set [3] (pretreatment at 10 µM), the “prevention of dendritic spine loss induced by oligomeric Aβ” value is on record as 97.5%. Besides, in data set [4], the “effect on Caspase-6” value is recorded as “very limited or no effect”. Moreover, the “effect on Cathepsin-L” value in data set [5] was “very limited or no effect”. Also, in data set [6], the S1P cleavage result is “abolished”; the SREBP2 activation result is reported as “abolished”; the “impact on RAIDD, PIDD1, and Casp2 expression” value is listed as “no significant impact”.
